Test system: 885512-296-R-J2-PDC complex spheroid growth, % test/control
Assay: Anticancer human tumor 885512-296-R-J2-PDC patient-derived breast carcinoma cell line growth inhibition [AhR]
Conditions: for IC50: curve of first compound; for viability, T/C: stronger effect = lower value
In short: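 Agents were dosed in half-log steps down from roughly clinical Cmax, or from 10 microM where Cmax was unknown, alone and with AhR antagonists. Read-out: percent test/control growth of tumor spheroids containing HUVEC and MSC stromal cells.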

[1] = second compound 0.1 µM, first compound 0.0316 µM
[2] = second compound 0.1 µM, first compound 0.1 µM
[3] = second compound 0.1 µM, first compound 0.316 µM
[4] = second compound 0.1 µM, first compound 1 µM
[5] = second compound 0.1 µM, first compound 3.16 µM
[6] = second compound 0.1 µM, first compound 10 µM
[7] = second compound 0.316 µM, first compound 0.0316 µM
[8] = second compound 0.316 µM, first compound 0.1 µM
[9] = second compound 0.316 µM, first compound 0.316 µM
[10] = second compound 0.316 µM, first compound 1 µM
[11] = second compound 0.316 µM, first compound 3.16 µM
[12] = second compound 0.316 µM, first compound 10 µM
[13] = second compound 1 µM, first compound 0.0316 µM
[14] = second compound 1 µM, first compound 0.1 µM
[15] = second compound 1 µM, first compound 0.316 µM
[16] = second compound 1 µM, first compound 1 µM
[17] = second compound 1 µM, first compound 3.16 µM
[18] = second compound 1 µM, first compound 10 µM
[19] = second compound 3.16 µM, first compound 0.0316 µM
[20] = second compound 3.16 µM, first compound 0.1 µM
[21] = second compound 3.16 µM, first compound 0.316 µM
[22] = second compound 3.16 µM, first compound 1 µM
[23] = second compound 3.16 µM, first compound 3.16 µM
[24] = second compound 3.16 µM, first compound 10 µM
[25] = second compound 10 µM, first compound 0.0316 µM
[26] = second compound 10 µM, first compound 0.1 µM
[27] = second compound 10 µM, first compound 0.316 µM
[28] = second compound 10 µM, first compound 1 µM
[29] = second compound 10 µM, first compound 3.16 µM
[30] = second compound 10 µM, first compound 10 µM
[31] = second compound 0.1 µM, first compound 0.00316 µM
[32] = second compound 0.1 µM, first compound 0.01 µM
[33] = second compound 0.316 µM, first compound 0.00316 µM
[34] = second compound 0.316 µM, first compound 0.01 µM
[35] = second compound 1 µM, first compound 0.00316 µM
[36] = second compound 1 µM, first compound 0.01 µM
[37] = second compound 3.16 µM, first compound 0.00316 µM
[38] = second compound 3.16 µM, first compound 0.01 µM
[39] = second compound 10 µM, first compound 0.00316 µM
[40] = second compound 10 µM, first compound 0.01 µM
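Note: spheroids exposed to compounds for seven days.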

IC50 (second compound 0.1 µM) [nM]	IC50 (second compound 0.316 µM) [nM]	IC50 (second compound 1 µM) [nM]	IC50 (second compound 3.16 µM) [nM]	IC50 (second compound 10 µM) [nM]	Structure (SMILES)	viability, T/C [1] [%]	viability, T/C [2] [%]	viability, T/C [3] [%]	viability, T/C [4] [%]	viability, T/C [7] [%]	viability, T/C [8] [%]	viability, T/C [9] [%]	viability, T/C [10] [%]	viability, T/C [13] [%]	viability, T/C [14] [%]	viability, T/C [15] [%]	viability, T/C [19] [%]	viability, T/C [20] [%]	viability, T/C [25] [%]	viability, T/C [26] [%]	also measured
> 10000	> 10000	> 10000	> 10000	< 31.6	CC(C)c1c(-c2ccccc2)nc2c(C#N)c[nH]n2c1=O + Cc1ccccc1N=Nc1ccc(NC(=O)c2ccnn2C)c(C)c1	105	106	108	110	106	104	111	104	96.2	94.4	98.4	80.9	79.2	45.5	50.8	viability, T/C [5]: 111%; viability, T/C [6]: 104%; viability, T/C [11]: 102%; viability, T/C [12]: 99.4%; viability, T/C [16]: 98.6%; viability, T/C [17]: 90%; viability, T/C [18]: 96.4%; viability, T/C [21]: 82.7%; viability, T/C [22]: 88%; viability, T/C [23]: 81.8%; viability, T/C [24]: 67.3%; viability, T/C [27]: 55.2%; viability, T/C [28]: 45.4%; viability, T/C [29]: 47.4%; viability, T/C [30]: 42%
5.46	5.72	4.47	2.15	< 0.316	CC[C@@]1(O)C(=O)OCc2c1cc1n(c2=O)Cc2cc3c(CN(C)C)c(O)ccc3nc2-1 + Cc1cncc(-c2nc(NCCc3c[nH]c4ccccc34)c3ncn(C(C)C)c3n2)c1	9.48	6.96			9.89	4.62			6.8	6.23		12.9	7.38	11.5	4.72	viability, T/C (second compound 0.1 µM, first compound 0.000316 µM): 87.8%; viability, T/C (second compound 0.1 µM, first compound 0.001 µM): 96.1%; viability, T/C [31]: 67.6%; viability, T/C [32]: 29.2%; viability, T/C (second compound 0.316 µM, first compound 0.000316 µM): 102%; viability, T/C (second compound 0.316 µM, first compound 0.001 µM): 88.1%; viability, T/C [33]: 71.9%; viability, T/C [34]: 30.6%; viability, T/C (second compound 1 µM, first compound 0.000316 µM): 90.4%; viability, T/C (second compound 1 µM, first compound 0.001 µM): 82.2%; viability, T/C [35]: 62%; viability, T/C [36]: 23.6%; viability, T/C (second compound 3.16 µM, first compound 0.000316 µM): 62.9%; viability, T/C (second compound 3.16 µM, first compound 0.001 µM): 60.1%; viability, T/C [37]: 44.5%; viability, T/C [38]: 27.3%; viability, T/C (second compound 10 µM, first compound 0.000316 µM): 21.8%; viability, T/C (second compound 10 µM, first compound 0.001 µM): 21.9%; viability, T/C [39]: 20.9%; viability, T/C [40]: 13.7%
551	601	395	170	< 31.6	COc1cc(C2c3cc4c(cc3C(OC3OC5COC(C)OC5C(O)C3O)C3COC(=O)C23)OCO4)cc(OC)c1O (stereo not given) + Cc1cncc(-c2nc(NCCc3c[nH]c4ccccc34)c3ncn(C(C)C)c3n2)c1	104	92.2	75	23.7	104	101	72.8	32.1	90.2	78	59.3	64.9	55.4	18.5	17.6	viability, T/C [5]: 10.6%; viability, T/C [6]: 8.99%; viability, T/C [11]: 10.5%; viability, T/C [12]: 8.12%; viability, T/C [16]: 17.5%; viability, T/C [17]: 11.2%; viability, T/C [18]: 8.42%; viability, T/C [21]: 42%; viability, T/C [22]: 15.6%; viability, T/C [23]: 10.7%; viability, T/C [24]: 9.12%; viability, T/C [27]: 14.2%; viability, T/C [28]: 14.1%; viability, T/C [29]: 10.2%; viability, T/C [30]: 6.83%
< 31.6	< 31.6	< 31.6	< 31.6	< 31.6	COc1cccc2c1C(=O)c1c(O)c3c(c(O)c1C2=O)CC(O)(C(=O)CO)CC3OC1CC(N)C(O)C(C)O1 (stereo not given) + Cc1cncc(-c2nc(NCCc3c[nH]c4ccccc34)c3ncn(C(C)C)c3n2)c1	23.9	15.2	5.94	0.65	24.4	19.5	6.25	0.34	19.7	17.9	5.13	17.6	12.1	11.9	5.06	viability, T/C [5]: 2.45%; viability, T/C [6]: 1.44%; viability, T/C [11]: 2.13%; viability, T/C [12]: 1.46%; viability, T/C [16]: 0.84%; viability, T/C [17]: 1.28%; viability, T/C [18]: 1.33%; viability, T/C [21]: 3.2%; viability, T/C [22]: 0.73%; viability, T/C [23]: 0.57%; viability, T/C [24]: 0.58%; viability, T/C [27]: 0.48%; viability, T/C [28]: 0.21%; viability, T/C [29]: 0.27%; viability, T/C [30]: 0.26%
< 31.6	< 31.6	< 31.6	< 31.6	< 31.6	Nc1ccn(C2OC(CO)C(O)C2(F)F)c(=O)n1 (stereo not given) + Cc1cncc(-c2nc(NCCc3c[nH]c4ccccc34)c3ncn(C(C)C)c3n2)c1	3.33	4.05	4.69	4.03	3.3	3.9	3.76	4.54	3.48	3.69	3.49	5.82	4.2	8.48	8.12	viability, T/C [5]: 3.99%; viability, T/C [6]: 4.46%; viability, T/C [11]: 4.43%; viability, T/C [12]: 3.99%; viability, T/C [16]: 4.33%; viability, T/C [17]: 3.22%; viability, T/C [18]: 3.99%; viability, T/C [21]: 4.2%; viability, T/C [22]: 4.17%; viability, T/C [23]: 4.29%; viability, T/C [24]: 3.8%; viability, T/C [27]: 3.15%; viability, T/C [28]: 2.99%; viability, T/C [29]: 2.64%; viability, T/C [30]: 2.75%
863	871	> 1000	354	< 3.16	Nc1ncn(C2CC(O)C(CO)O2)c(=O)n1 (stereo not given) + Cc1cncc(-c2nc(NCCc3c[nH]c4ccccc34)c3ncn(C(C)C)c3n2)c1	101	93.6	74.4	46.4	88.9	93.7	77.7	45.9	80.7	90.4	76	57.2	58.3	20.7	11.7	viability, T/C [31]: 93.5%; viability, T/C [32]: 104%; viability, T/C [33]: 101%; viability, T/C [34]: 113%; viability, T/C [35]: 91.5%; viability, T/C [36]: 86%; viability, T/C [16]: 58.5%; viability, T/C [37]: 67.8%; viability, T/C [38]: 68.5%; viability, T/C [21]: 46%; viability, T/C [22]: 48.1%; viability, T/C [39]: 18.5%; viability, T/C [40]: 20.6%; viability, T/C [27]: 14.9%; viability, T/C [28]: 12.7%

— PubChem BioAssay AID1919006 (Molecular Pharmacology Branch, DTP, NCI, 2023)
